# Test results taken from patent US8293768B2, “Organic compounds” (Novartis AG, priority 2006, dated 2012).
row,melting point,Structure (SMILES)
1,191 to 193 °C,"Cc1cnc(CNC(=O)c2sc(N3CCN(Cc4ccc(F)cc4)C3=O)nc2C)cn1 [Example 32.10, 2-(3-(4-fluorobenzyl)-2-oxoimidazolidin-1-yl)-4-methyl-N-((5-methylpyrazin-2-yl)methyl)thiazole-5-carboxamide]"
2,187 to 189 °C,"Cc1nc(N2CCN(Cc3ccc(F)cc3)C2=O)sc1C(=O)NCc1ncco1 [Example 32.11, 2-(3-(4-fluorobenzyl)-2-oxoimidazolidin-1-yl)-4-methyl-N-(oxazol-2-ylmethyl)thiazole-5-carboxamide]"
3,173 to 175 °C,"Cc1nc(N2CCN(Cc3ccc(F)cc3)C2=O)sc1C(=O)NCc1cnn(C)c1 [Example 32.13, 2-(3-(4-fluorobenzyl)-2-oxoimidazolidin-1-yl)-4-methyl-N-((1-methyl-1H-pyrazol-4-yl)methyl)thiazole-5-carboxamide]"
4,175 to 176 °C,"Cc1nc(N2CCN(Cc3ccc(F)cc3)C2=O)sc1C(=O)NCc1ccncn1 [Example 32.14, 2-(3-(4-fluorobenzyl)-2-oxoimidazolidin-1-yl)-4-methyl-N-(pyrimidin-4-ylmethyl)thiazole-5-carboxamide]"
5,205 to 207 °C,"Cc1nc(N2CCN(Cc3ccc(F)cc3)C2=O)sc1C(=O)NCc1ncccn1 [Example 32.16, 2-(3-(4-fluorobenzyl)-2-oxoimidazolidin-1-yl)-4-methyl-N-(pyrimidin-2-ylmethyl)thiazole-5-carboxamide]"
6,198 to 201 °C,"Cc1nc(N2CCN(CCc3c[nH]c4ccccc34)C2=O)sc1C(=O)NCc1cccnc1 [Example 32.20, 2-(3-(2-(1H-indol-3-yl)ethyl)-2-oxoimidazolidin-1-yl)-4-methyl-N-(pyridin-3-ylmethyl)thiazole-5-carboxamide]"
7,183 to 185 °C,"Cc1nc(N2CCN(Cc3ccc(F)cc3)C2=O)sc1C(=O)NCc1ccccn1 [Example 32.21, 2-(3-(4-fluorobenzyl)-2-oxoimidazolidin-1-yl)-4-methyl-N-(pyridin-2-ylmethyl)thiazole-5-carboxamide]"
8,146 to 149 °C,"Cc1nc(N2CCN(Cc3ccc(F)cc3)C2=O)sc1C(=O)NCc1ccncc1 [Example 32.23, 2-(3-(4-fluorobenzyl)-2-oxoimidazolidin-1-yl)-4-methyl-N-(pyridin-4-ylmethyl)thiazole-5-carboxamide]"
9,148 to 151 °C,"Cc1nc(N2CCN(CC3CC3)C2=O)sc1C(=O)NCc1ccccn1 [Example 32.24, 2-(3-(cyclopropylmethyl)-2-oxoimidazolidin-1-yl)-4-methyl-N-(pyridin-2-ylmethyl)thiazole-5-carboxamide]"
10,233 to 235 °C,"Cc1nc(N2CCN(Cc3ccncc3)C2=O)sc1C(=O)NCc1cccnc1 [Example 33, 4-methyl-2-(2-oxo-3-(pyridin-4-ylmethyl)imidazolidin-1-yl)-N-(pyridin-3-ylmethyl)thiazole-5-carboxamide]"
11,130 to 132 °C,"Cc1nc(N2CCN(C(=O)c3ccc(F)cc3)C2=O)sc1C(=O)NCc1ccccc1 [Example 34, N-benzyl-2-(3-(4-fluorobenzoyl)-2-oxoimidazolidin-1-yl)-4-methylthiazole-5-carboxamide]"
12,212 to 213 °C,"Cc1nc(N2CCN(Cc3ccc(C(F)(F)F)cc3)C2=O)sc1-c1cc[nH]n1 [Example 38, 1-(4-methyl-5-(1H-pyrazol-3-yl)thiazol-2-yl)-3-(4-(trifluoromethyl)-benzyl)imidazolidin-2-one]"
13,201 to 203 °C,"Cc1cc(-c2sc(N3CCN(Cc4ccc(C(F)(F)F)cc4)C3=O)nc2C)on1 [Example 38.3, 1-(4-methyl-5-(3-methylisoxazol-5-yl)thiazol-2-yl)-3-(4-(trifluoromethyl)benzyl)imidazolidin-2-one]"
14,182 to 183 °C,"Cc1cc(-c2sc(N3CCN(Cc4ccc(C(=O)N5CCCCC5)cc4)C3=O)nc2C)n[nH]1 [Example 40, 1-(4-methyl-5-(3-methyl-1H-pyrazol-5-yl)thiazol-2-yl)-3-(4-(piperidine-1-carbonyl)benzyl)imidazolidin-2-one]"
15,236 to 238 °C,"CNC(=O)c1ccc(CN2CCN(c3nc(C)c(-c4cc(C)[nH]n4)s3)C2=O)cc1 [Example 40.2, N-methyl-4-((3-(4-methyl-5-(3-methyl-1H-pyrazol-5-yl)thiazol-2-yl)-2-oxoimidazolidin-1-yl)methyl)benzamide]"
16,149 to 150 °C,"Cc1nc(-n2cnn(CCOC(=O)NCc3ccc(F)cc3)c2=O)sc1C(=O)NCc1cccnc1 [Example 48, 2-(4-(4-methyl-5-(pyridin-3-ylmethylcarbamoyl)thiazol-2-yl)-5-oxo-4,5-dihydro-1H-1,2,4-triazol-1-yl)ethyl 4-fluorobenzylcarbamate]"
17,174 to 176 °C,"Cc1cc(N2CCN(CC(=O)c3ccccc3)C2=O)sc1C(=O)NCc1cccnc1 [Example 55.1, 3-methyl-5-(2-oxo-3-(2-oxo-2-phenylethyl)imidazolidin-1-yl)-N-(pyridin-3-ylmethyl)thiophene-2-carboxamide]"
18,265 to 267 °C,"Cc1cc(N2CCN(Cc3ccc(F)cc3)C2=O)sc1C(=O)NCc1nc2ccccc2[nH]1 [Example 55.4, N-((1H-benzo[d]imidazol-2-yl)methyl)-5-(3-(4-fluorobenzyl)-2-oxoimidazolidin-1-yl)-3-methylthiophene-2-carboxamide]"

# Second part, the molecule before the results:
row,Structure (SMILES),melting point
1,"Cc1ncc(CNC(=O)c2sc(N3CCN(Cc4ccc(F)cc4)C3=O)nc2C)s1 [Example 32.12, 2-(3-(4-fluorobenzyl)-2-oxoimidazolidin-1-yl)-4-methyl-N-((2-methylthiazol-5-yl)methyl)thiazole-5-carboxamide]",213 to 215 °C
2,"Cc1nc(N2CCN(Cc3ccc(F)cc3)C2=O)sc1C(=O)NCc1cccnn1 [Example 32.15, 2-(3-(4-fluorobenzyl)-2-oxoimidazolidin-1-yl)-4-methyl-N-(pyridazin-3-ylmethyl)thiazole-5-carboxamide]",222 to 225 °C
3,"Cc1nc(N2CCN(Cc3ccc(F)cc3)C2=O)sc1C(=O)NCc1cnccn1 [Example 32.17, 2-(3-(4-fluorobenzyl)-2-oxoimidazolidin-1-yl)-4-methyl-N-(pyrazin-2-ylmethyl)thiazole-5-carboxamide]",185 to 187 °C
4,"Cc1nc(N2CCN(Cc3ccc(F)cc3)C2=O)sc1C(N)=O [Example 32.18, 2-(3-(4-fluorobenzyl)-2-oxoimidazolidin-1-yl)-4-methylthiazole-5-carboxamide]",201 to 203 °C
5,"CNC(=O)c1sc(N2CCN(Cc3ccc(F)cc3)C2=O)nc1C [Example 32.19, 2-(3-(4-fluorobenzyl)-2-oxoimidazolidin-1-yl)-N,4-dimethylthiazole-5-carboxamide]",225 to 227 °C
6,"Cc1nc(N2CCN(Cc3ccc(F)cc3)C2=O)sc1C(=O)N(C)C [Example 32.22, 2-(3-(4-fluorobenzyl)-2-oxoimidazolidin-1-yl)-N,N,4-trimethylthiazole-5-carboxamide]",162 to 164 °C
7,"Cc1nc(N2CCCN(Cc3ccc(F)cc3)C2=O)sc1C(=O)NCc1cccnc1 [Example 32.25, 2-(3-(4-fluorobenzyl)-2-oxotetrahydropyrimidin-1(2H)-yl)-4-methyl-N-(pyridin-3-ylmethyl)thiazole-5-carboxamide]",48 to 50 °C
8,"Cc1nc(N2CCCN(CC3CC3)C2=O)sc1C(=O)NCc1cccnc1 [Example 32.26, 2-(3-(cyclopropylmethyl)-2-oxotetrahydropyrimidin-1(2H)-yl)-4-methyl-N-(pyridin-3-ylmethyl)thiazole-5-carboxamide]",142 to 145 °C
9,"Cc1cc(-c2sc(N3CCN(Cc4ccc(C(F)(F)F)cc4)C3=O)nc2C)n[nH]1 [Example 38.2, 1-(4-methyl-5-(5-methyl-1H-pyrazol-3-yl)thiazol-2-yl)-3-(4-(trifluoromethyl)benzyl)imidazolidin-2-one]",238 to 239 °C
10,"Cc1cc(-c2sc(N3CCN(Cc4ccc(F)cc4)C3=O)nc2C)n[nH]1 [Example 40.1, 1-(4-fluorobenzyl)-3-(4-methyl-5-(5-methyl-1H-pyrazol-3-yl)thiazol-2-yl)imidazolidin-2-one]",218 to 221 °C
11,"Cc1nc(N2CCN(Cc3ccc(C(F)(F)F)cc3)C2=O)sc1CO [Example 41, 1-(5-(hydroxymethyl)-4-methylthiazol-2-yl)-3-(4-(trifluoromethyl)benzyl)imidazolidin-2-one]",153 to 154 °C
12,"Cc1nc(N2CCN(Cc3ccc(C(F)(F)F)cc3)C2=O)sc1-c1cnco1 [Example 43, 1-(4-methyl-5-(oxazol-5-yl)thiazol-2-yl)-3-(4-(trifluoromethyl)benzyl)-imidazolidin-2-one]",160 to 162 °C
13,"Cc1nc(-n2cnn(CCNCc3ccc(F)cc3)c2=O)sc1C(=O)NCc1cccnc1 [Example 47, 2-(1-(2-(4-fluorobenzylamino)ethyl)-5-oxo-1H-1,2,4-triazol-4(5H)-yl)-4-methyl-N-(pyridin-3-ylmethyl)thiazole-5-carboxamide]",106 to 107 °C
14,"Cc1nc(-n2cnn(CCNc3ccc(F)cc3)c2=O)sc1C(=O)NCc1cccnc1 [Example 47.1, 2-(1-(2-(4-fluorophenylamino)ethyl)-5-oxo-1H-1,2,4-triazol-4(5H)-yl)-4-methyl-N-(pyridin-3-ylmethyl)thiazole-5-carboxamide]",163 to 164 °C
15,"Cc1nc(-n2cnn(CCOCc3ccc(F)cc3)c2=O)sc1C(=O)NCc1cccnc1 [Example 49, 2-(1-(2-(4-fluorobenzyloxy)ethyl)-5-oxo-1H-1,2,4-triazol-4(5H)-yl)-4-methyl-N-(pyridin-3-ylmethyl)thiazole-5-carboxamide]",235 to 236 °C
16,"Cc1cc(N2CCN(CCOc3ccccc3)C2=O)sc1C(=O)NCc1cccnc1 [Example 55, 3-methyl-5-(2-oxo-3-(2-phenoxyethyl)imidazolidin-1-yl)-N-(pyridin-3-ylmethyl)thiophene-2-carboxamide]",78 to 80 °C
17,"Cc1cc(N2CCN(Cc3ccc(C(N)=O)cc3)C2=O)sc1C(=O)NCc1cccnc1 [Example 55.2, 5-(3-(4-carbamoylbenzyl)-2-oxoimidazolidin-1-yl)-3-methyl-N-(pyridin-3-ylmethyl)thiophene-2-carboxamide]",188 °C (dec.)
